Measured values published in ChEMBL document CHEMBL3124828, “A 2,6,9-hetero-trisubstituted purine inhibitor exhibits potent biological effects against multiple myeloma cells” (Bioorg Med Chem, 2013).
The source made the active and inactive calls. No cut-off for these calls is given here.

Tests used:
MDA-MB-468 = assay: Cytotoxicity against human MDA-MB-468 cells after 72 hrs by MTS assay; format: functional, cell-based
DU-145 = assay: Cytotoxicity against human DU145 cells after 72 hrs by MTS assay; format: functional, cell-based
OCI-AML2 = assay: Cytotoxicity against human OCI-AML2 cells after 72 hrs by MTS assay; format: functional, cell-based
[1] = target: Signal transducer and activator of transcription 3 (Homo sapiens) (UniProt P40763); assay: Displacement of FAM-GpYLPQTV-NH2 from full-length Stat3 SH2 domain (unknown origin) up to 400 uM by fluorescence polarization
JJN-3 [2] = assay: Induction of apoptosis in human JJN-3 cells assessed as viable cells at 15 uM after 48 hrs by annexinV/propidium iodide staining (reference value: 75.9%); format: functional; conditions: JJN-3, 48 h, read-out: Activity
[3] = Induction of apoptosis in human XG6 cells assessed as early apoptotic cells at 15 uM after 48 hrs by annexinV/propidium iodide staining (reference value: 8.62%); format: functional
JJN-3 [4] = assay: Induction of apoptosis in human JJN-3 cells assessed as late apoptotic cells at 15 uM after 48 hrs by annexinV/propidium iodide staining (reference value: 9.59%); format: functional
[5] = Induction of apoptosis in human XG6 cells assessed as late apoptotic cells at 15 uM after 48 hrs by annexinV/propidium iodide staining (reference value: 7.78%); format: functional
JJN-3 [6] = assay: Induction of apoptosis in human JJN-3 cells assessed as early apoptotic cells at 15 uM after 48 hrs by annexinV/propidium iodide staining (reference value: 13.3%); format: functional
[7] = Induction of apoptosis in human XG6 cells assessed as viable cells at 15 uM after 48 hrs by annexinV/propidium iodide staining (reference value: 83.3%); format: functional; conditions: XG6, 48 h, read-out: Activity

Chain of Signal transducer and activator of transcription 3 (Homo sapiens) (P40763 whole entry, the tested form may be a part): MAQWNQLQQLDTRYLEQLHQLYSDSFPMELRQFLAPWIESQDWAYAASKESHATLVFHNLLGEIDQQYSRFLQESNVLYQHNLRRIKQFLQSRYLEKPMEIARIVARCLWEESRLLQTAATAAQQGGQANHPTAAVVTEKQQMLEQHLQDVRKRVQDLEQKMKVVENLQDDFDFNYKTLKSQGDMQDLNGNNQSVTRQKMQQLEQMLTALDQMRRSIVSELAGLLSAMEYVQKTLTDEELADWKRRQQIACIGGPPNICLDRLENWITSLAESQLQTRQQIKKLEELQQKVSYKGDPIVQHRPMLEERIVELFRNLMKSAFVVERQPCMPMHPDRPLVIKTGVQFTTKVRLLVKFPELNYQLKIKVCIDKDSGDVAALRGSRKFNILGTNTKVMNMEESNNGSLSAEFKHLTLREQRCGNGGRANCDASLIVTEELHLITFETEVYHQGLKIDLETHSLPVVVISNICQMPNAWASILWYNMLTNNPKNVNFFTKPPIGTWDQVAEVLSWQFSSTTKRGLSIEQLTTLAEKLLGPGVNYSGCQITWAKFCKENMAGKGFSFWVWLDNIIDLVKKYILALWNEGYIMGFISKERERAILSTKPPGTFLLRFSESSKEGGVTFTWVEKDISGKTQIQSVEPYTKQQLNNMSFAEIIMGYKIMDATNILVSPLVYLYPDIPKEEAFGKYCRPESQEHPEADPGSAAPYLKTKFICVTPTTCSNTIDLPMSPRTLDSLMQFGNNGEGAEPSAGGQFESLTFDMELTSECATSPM

SMILES | Activity (MDA-MB-468) | Activity (DU-145) | Activity (OCI-AML2) | further results
CC(=O)OCOC(=O)Cn1cnc2c(NC3CCCC3)nc(NCc3ccc(C4CCCCC4)cc3)nc21 | inactive | inactive | inactive | 
CC(=O)OCOC(=O)Cn1cnc2c(NCCC(C)C)nc(NCc3ccc(C4CCCCC4)cc3)nc21 | inactive | inactive | inactive | 
CC(=O)OCOC(=O)Cn1cnc2c(Oc3ccc([N+](=O)[O-])cc3)nc(NCc3ccc(C4CCCCC4)cc3)nc21 | inactive | inactive | inactive | 
CCOC(=O)Cn1cnc2c(Nc3ccc(F)cc3)nc(NCc3ccc(C4CCCCC4)cc3)nc21 | inactive | inactive | inactive | inhibition [1]: inactive
CC(C)(C)C(=O)OCOC(=O)Cn1cnc2c(N3CCOCC3)nc(NCc3ccc(C4CCCCC4)cc3)nc21 | inactive | inactive | inactive | 
CC(=O)OCOC(=O)Cn1cnc2c(NCC(C)C)nc(NCc3ccc(C4CCCCC4)cc3)nc21 | inactive | inactive | inactive | 
O=C(Nc1nc(N2CCOCC2)c2ncn(CCc3nnn[nH]3)c2n1)C1CCCCC1 | inactive | inactive | inactive | 
CC(C)(C)C(=O)OCOC(=O)Cn1cnc2c(Oc3ccc([N+](=O)[O-])cc3)nc(NCc3ccc(C4CCCCC4)cc3)nc21 | inactive | inactive | inactive | 
c1cc(C2CCCCC2)ccc1CNc1nc(N2CCOCC2)c2ncn(CCc3nnn[nH]3)c2n1 | inactive | inactive | inactive | 
CCOC(=O)Cn1cnc2c(NCc3ccco3)nc(NCc3ccc(C4CCCCC4)cc3)nc21 | inactive | inactive | inactive | 
NS(=O)(=O)OCCn1cnc2c(N3CCOCC3)nc(NCc3ccc(C4CCCCC4)cc3)nc21 | inactive | inactive | inactive | 
CC(C)CCNc1nc(NCc2ccc(C3CCCCC3)cc2)nc2c1ncn2CCOS(N)(=O)=O | inactive | inactive | inactive | 
CC(C)CNc1nc(NCc2ccc(C3CCCCC3)cc2)nc2c1ncn2CCOS(N)(=O)=O | inactive | inactive | inactive | 
O=[N+]([O-])c1ccc(Oc2nc(NCc3ccc(C4CCCCC4)cc3)nc3c2ncn3CCc2nnn[nH]2)cc1 | inactive | inactive | inactive | 
c1cc(C2CCCCC2)ccc1CNc1nc(NC2CCCC2)c2ncn(CCc3nnn[nH]3)c2n1 | inactive | inactive | inactive | 
CCOC(=O)Cn1cnc2c(N3CCOCC3)nc(NCc3ccc(C4CCCCC4)cc3)nc21 | inactive | inactive | inactive | 
CCOC(=O)Cn1cnc2c(N3CCOCC3)nc(NC(=O)C3CCCCC3)nc21 | inactive | inactive | inactive | 
N[C@@H](Cc1ccc(N(CCCl)CCCl)cc1)C(=O)O [MELPHALAN] |  |  |  | viability at 15 µM (JJN-3 [2]): 54.5%; Activity [3]: 34%; Activity (JJN-3 [4]): 23.7%; Activity [5]: 34.8%; Activity (JJN-3 [6]): 19.3%; viability at 15 µM [7]: 30.8%
CC(C)(C)C(=O)OCOC(=O)Cn1cnc2c(NC3CCCC3)nc(NCc3ccc(C4CCCCC4)cc3)nc21 | inactive | inactive | inactive | 
CCOC(=O)Cn1cnc2c(Oc3ccc([N+](=O)[O-])cc3)nc(NCc3ccc(C4CCCCC4)cc3)nc21 | inactive | inactive | inactive | 

SMILES | Activity (MDA-MB-468) | Activity (DU-145) | Activity (OCI-AML2) | further results
CC(=O)OCOC(=O)Cn1cnc2c(N3CCOCC3)nc(NC(=O)C3CCCCC3)nc21 | inactive | inactive | inactive | 
CC(C)(C)C(=O)OCOC(=O)Cn1cnc2c(Nc3ccc(F)cc3)nc(NCc3ccc(C4CCCCC4)cc3)nc21 | inactive | inactive | inactive | inhibition [1]: inactive
CCOC(=O)Cn1cnc2c(NC3CCCC3)nc(NCc3ccc(C4CCCCC4)cc3)nc21 | inactive | inactive | inactive | 
CC(C)CCNc1nc(NCc2ccc(C3CCCCC3)cc2)nc2c1ncn2CC(=O)OCOC(=O)C(C)(C)C | inactive | inactive | inactive | 
Fc1ccc(Nc2nc(NCc3ccc(C4CCCCC4)cc3)nc3c2ncn3CCc2nnn[nH]2)cc1 | inactive | inactive | inactive | inhibition [1]: inactive
CC(=O)OCOC(=O)Cn1cnc2c(N3CCOCC3)nc(NCc3ccc(C4CCCCC4)cc3)nc21 | inactive | inactive | inactive | 
NS(=O)(=O)OCCn1cnc2c(N3CCOCC3)nc(NC(=O)C3CCCCC3)nc21 | inactive | inactive | inactive | inhibition [1]: inactive
CCOC(=O)Cn1cnc2c(NCCC(C)C)nc(NCc3ccc(C4CCCCC4)cc3)nc21 | inactive | inactive | inactive | 
CCOC(=O)Cn1cnc2c(NCC(C)C)nc(NCc3ccc(C4CCCCC4)cc3)nc21 | inactive | inactive | inactive | 
CC(C)CNc1nc(NCc2ccc(C3CCCCC3)cc2)nc2c1ncn2CCc1nnn[nH]1 | inactive | inactive | inactive | 
c1coc(CNc2nc(NCc3ccc(C4CCCCC4)cc3)nc3c2ncn3CCc2nnn[nH]2)c1 | inactive | inactive | inactive | inhibition [1]: inactive
CC(=O)OCOC(=O)Cn1cnc2c(Nc3ccc(F)cc3)nc(NCc3ccc(C4CCCCC4)cc3)nc21 | inactive | inactive | inactive | inhibition [1]: inactive
NS(=O)(=O)OCCn1cnc2c(NCc3ccco3)nc(NCc3ccc(C4CCCCC4)cc3)nc21 | inactive | inactive | inactive | 
CC(C)CCNc1nc(NCc2ccc(C3CCCCC3)cc2)nc2c1ncn2CCc1nnn[nH]1 | inactive | inactive | inactive | 
NS(=O)(=O)OCCn1cnc2c(Oc3ccc([N+](=O)[O-])cc3)nc(NCc3ccc(C4CCCCC4)cc3)nc21 | inactive | inactive | inactive | 
CC(=O)OCOC(=O)Cn1cnc2c(NCc3ccco3)nc(NCc3ccc(C4CCCCC4)cc3)nc21 | inactive | inactive | inactive | 
NS(=O)(=O)OCCn1cnc2c(NC3CCCC3)nc(NCc3ccc(C4CCCCC4)cc3)nc21 | inactive | inactive | inactive | 
CC(C)(C)C(=O)OCOC(=O)Cn1cnc2c(NCc3ccco3)nc(NCc3ccc(C4CCCCC4)cc3)nc21 | inactive | inactive | inactive | 
CC(C)CNc1nc(NCc2ccc(C3CCCCC3)cc2)nc2c1ncn2CC(=O)OCOC(=O)C(C)(C)C | inactive | inactive | inactive | 
CC(C)(C)C(=O)OCOC(=O)Cn1cnc2c(N3CCOCC3)nc(NC(=O)C3CCCCC3)nc21 | inactive | inactive | inactive | 
